Assay results reported in the NIST ThermoML archive (doi:10.1016/j.jct.2011.05.036).
± gives the expanded uncertainty stated by the source.

Assay: mn = molality of the nth substance listed, in mol/kg
Conditions: 298.15 K, 101 kPa, Liquid, Vibrating tube method

Structure (SMILES)	mass density (m1 = 0.1262) [kg/m3]	mass density (m1 = 0.2647) [kg/m3]	mass density (m1 = 0.6529) [kg/m3]	mass density (m1 = 1.012) [kg/m3]	mass density (m1 = 1.477) [kg/m3]	mass density (m1 = 2.03) [kg/m3]	mass density (m1 = 2.537) [kg/m3]	mass density (m1 = 3.196) [kg/m3]	mass density (m1 = 3.75) [kg/m3]	mass density (m1 = 0.0212) [kg/m3]	mass density (m1 = 0.0584) [kg/m3]	mass density (m1 = 0.1012) [kg/m3]	mass density (m1 = 0.2396) [kg/m3]	mass density (m1 = 0.6942) [kg/m3]	mass density (m1 = 1.248) [kg/m3]	mass density (m1 = 2.273) [kg/m3]	mass density (m1 = 3.243) [kg/m3]	mass density (m1 = 4.387) [kg/m3]	mass density (m1 = 5.781) [kg/m3]	mass density (m1 = 7.087) [kg/m3]
O=S(=O)(O)CC(O)CN1CCOCC1 (stereo not given) [3-morpholino-2-hydroxypropanesulfonic acid] + O	1006.93 ± 0.14	1017.35 ± 0.14	1044.51 ± 0.14	1067.2 ± 0.14	1093.32 ± 0.15	1120.89 ± 0.16	1142.98 ± 0.17	1168.39 ± 0.19	1187 ± 0.2											
O=S(=O)(O)CCCN1CCOCC1 [4-morpholinepropanesulfonic acid] + O										998.4 ± 0.13	1000.76 ± 0.13	1003.44 ± 0.13	1011.89 ± 0.13	1037.46 ± 0.13	1064.7 ± 0.13	1106.41 ± 0.14	1138.03 ± 0.15	1168.14 ± 0.16	1195.72 ± 0.17	1217.61 ± 0.18
